Test results reported in patent US8759348B2, “Use of 4-(pyrrolidin-1-yl)quinoline compounds to kill clinically latent microorganisms” (Helperby Therapeutics Limited, priority 2007, dated 2014).

Test system: persister Mycobacterium tuberculosis
Format: cell-based
Conditions: 10 μg/mL of test compound

Work on `Cc1cc(N2CCC(Cc3ccccc3)C2)c2cc(Oc3ccccc3)ccc2n1.Cl` (stereo not shown) [Example 8, 4-(3-Benzylpyrrolidin-1-yl)-2-methyl-6-phenoxyquinoline hydrochloride] yielded a log kill of 2.26.
